This note sets out measurements from US8993556B2, “Resorcinol derivatives as HSP90 inhibitors” (priority 2009, dated 2015).

Data set [1] concerns A2780 human ovarian cells. In words: In Vitro Cell Proliferation Assay. It counts as cell-based. The protocol: The cells were incubated at 37° C. and 5% CO2 and after 72 hours the plates were processed using CellTiter-Glo assay (Promega) following the manufacturer's instruction.
CellTiter-Glo is a homogenous method based on the quantification of the ATP present, an indicator of metabolically active cells. ATP is quantified using a system based on luciferase and D-luciferin resulting into light generation. The luminescent signal is proportional to the number of cells present in culture.
Briefly 25 μL/well reagent solution are added to each wells and after 5 minutes shacking microplates are red by a luminometer. The luminescent signal is proportional to the number of cells present in culture.

Data set [2] deals with Her2 protein levels in BT474 breast cancer cells. In words: Her2 Degradation Assay. It counts as cell-based. To be noted: Homo sapiens. The protocol: The potencies of the compounds of the present invention were evaluated by measuring the Her2 degradation as a marker for HSP90 inhibition.
HSP90 is a key component of a chaperone machinery that catalyzes the folding and quality control of several proteins. Its inhibition impairs the capacity to fold or stabilize its client proteins, leading to the proteosomal dependent degradation of these unfolded proteins. […] Cellular activity of HSP90 inhibitors was assessed by measuring the induced loss of Her2 protein levels in BT474 breast cancer cells (ATCC #HTB-20). Cellular Her2 levels were measured by immunocytochemistry, and quantified using an ArrayScan vTi instrument (Cellomics Thermo Scientific).
Cellular activity of HSP90 inhibitors was assessed by measuring the induced loss of Her2 protein levels in BT474 breast cancer cells (ATCC #HTB-20). Cellular Her2 levels were measured by immunocytochemistry, and quantified using an ArrayScan vTi instrument (Cellomics Thermo Scientific).
Studies were performed as follows: 5000 cells/well are seeded in 96 well plates (Perkin Elmer) in DMEM/5% FCS and incubated for 48 hours at 37° C., 5% CO2.
Medium is then replaced with fresh medium containing test compounds at the required concentration. Concentration curves are prepared in DMEM/10% FCS from compound stocks in DMSO, and final DMSO concentration is 0.1% (v/v). Duplicate wells for each concentration point are prepared, with a typical highest compound concentration of 30 μM. […] Plates are incubated for 20 minutes at room temperature, then wells are washed in PBS and cells permiabilised by incubating with PBS containing 0.3% Triton X-100 for 15 minutes at room temperature. Non-specific binding sites are blocked by incubating wells for 1 hour in PBS containing 3% (w/v) BSA. Wells are then incubated for 1 hour at room temperature in PBS containing anti Her2 mouse monoclonal (Anti-c-ErbB2/c-Neu, Mouse mAb 3B5, Calbiochem Cat N^o OP15) diluted 1:100 in 1% (w/v) BSA. […] After washing a further 3 times in PBS, cellular Her2 immunoreactivity is assessed using the ArrayScan vTi instrument, with a Zeiss 10× 0.5 N.A. objective, and applying the Cytotoxity.V3 algorithm (Cellomics/Thermo Fisher) with a XF100 filter. At least 10 fields, corresponding to at least 900 cells, are read for each well.
IC50 is the response; IC50 starts at Bottom and goes to Top with a sigmoid shape. In Vitro Cell Proliferation Assay

A further data set is described as follows: in vivo. The following applies: Mouse Balb Nu/Nu, single; for clearance / half-life / Vd: 10 mg/kg IV bolus; for clearance: read-out: CL (mL/h/kg) Plasma clearance (converted); for half-life: read-out: T1/2 (h) Terminal half-life (converted); for Vd: read-out: Vdss (mL/kg) Volume of distribution at steady state; for bioavailability: 10 mg/kg oral vs 10 mg/kg IV, read-out: F % Oral bioavailability. The protocol:
Calibration Standards and Quality Controls were prepared spiking blank mouse plasma with appropriate working solutions.
Sample plasma proteins were precipitated by adding 160 μL of acetonitrile/methanol 90/10 to 20 μL of mouse plasma in a 96 well plate.
After heat sealing and mixing for 3 minutes, the plate was centrifuged for 15 minutes at 4000 rpm.
The supernatant was considered as final extract and injected onto the LC-MS-MS system.
• UPLC system: Waters Acquity BSM • Mobile phase A: 95:5-5 mM Ammonium Formate pH3.5: Acetonitrile • Mobile phase B: 5:95-5 mM Ammonium Formate pH3.5: Acetonitrile • Analytical column: BEH C18 50×2.1 1.7 μm • Elution conditions:
• Total Run Time: 2.0 min. • Flow rate: 0.500 mL/min • Approximate retention time: NMS-03308086: 0.67 min. • Column oven temp: 40° C. • Autosampler type: Waters Acquity SM • Injection volume: 3 μL • Injection mode: Partial Loop with Needle Overfill • Autosampler temperature: 5° C. • MS instrument: Waters TQD • Ionisation: ES+ • Capillary: 1.5 kV • Cone: 70 V • Source Temperature: 150° C. • Desolvation Flow and Temp.: 900 L/h-400° C. • Collision Gas Flow: 0.2 mL/min • Collision Energy: 40 • MRM transitions: NMS-03308086: m/z 579.1>m/z 97.0 • Dwell Time: 0.1 seconds • LLOQ: 5.0 ng/mL • ULOQ: 5000 ng/mL • Software used: Mass Lynx 4.1 SCN627

A further data set concerns the target His-HSP90 N-term domain. The experiment in a line: Determination of KD Via Biacore. It is filed as binding. To be noted: Biacore T100. The procedure: The evaluation of the binding affinity (KD) of the compounds of formula (I) to the HSP90 protein was done using Biacore T100.
His-HSP90 N-term domain was immobilized by capture of his tag by the Ab previously covalently bound to the chip (CM5) surface.
The compounds were analyzed using the following running buffer: 20 mM Tris/HCl pH 7.6, 150 mM KCl, 5 mM MgCl2, 0.05% P20 and 1% DMSO. The flow rate was 50 ul/min with and association time of 60 seconds.
The cpds were diluted in running buffer from 100× stock solution; the different conc injected were obtained from a sequential dilution in order to have the same DMSO conc. in each sample and avoid any solvent correction.
On the technique in general: Surface plasmon resonance follows binding to a sensor surface in real time, without labels.

[3] abbreviates: Homo sapiens, A2780, 72 h, read-out: A2780 Proliferation IC50 (μM).
Where [4] appears, read: BT-474, 8 h, read-out: Her2 Degradation IC50 (μM).
The mark [5] stands for this setting: BT-474, BT474 breast cancer cells, 8 hours, read-out: Her2 Degradation IC50.
Where [6] appears, read: A2780 human ovarian cells, 72 hours, CellTiter-Glo, read-out: A2780 Proliferation IC50.

Like-named read-outs stand apart in the source and are kept apart here.

Consider `CCNC(=O)c1cc(-c2c(O)cc(O)cc2Oc2ccc([N+](=O)[O-])cc2)on1` [5-[2,4-Dihydroxy-6-(4-nitrophenoxy)phenyl]-N-ethyl isoxazole-3-carboxamide], for which the IC50 is 0.07 µM in data set [1] (setting [3]) and 0.059 µM in data set [2] (setting [4]).

With `CCNC(=O)c1cc(-c2c(O)cc(O)cc2Oc2ccc(C#N)cc2)on1` [5-[2-(4-Cyanophenoxy)-4,6-dihydroxyphenyl]-N-ethylisoxazole-3-carboxamide], in data set [2] (setting [5]), the IC50 stood at 0.277 µM.

`CN(C)c1ccc(Oc2cc(O)cc(O)c2-c2cc(C(=O)NC3CCN(C4CCC5(CC4)OCCO5)CC3)no2)cc1`: in “in vivo”, the clearance is 1760 mL/h/kg; the half-life is 5.46 h; the Vd is 4940 mL/kg; the bioavailability (usually dose-corrected exposure relative to a reference, in per cent) came to 36%.

On to `CN(C)c1ccc(Oc2cc(O)cc(O)c2-c2cc(C(=O)NC3CCN(C4CCCCC4)CC3)no2)cc1` [N-(1-Cyclohexylpiperidin-4-yl)-5-{2-[4-(dimethylamino)phenoxy]-4,6-dihydroxyphenyl}isoxazole-3-carboxamide], for which the IC50 in data set [2] (setting [4]) worked out at 0.003 µM.

Regarding `CN(C)c1ccc(Oc2cc(O)cc(O)c2-c2cc(C(=O)NC3CCN(C4CCC5(CC4)OCC(C)(C)CO5)CC3)no2)cc1` [5-{2-[4-(Dimethylamino)phenoxy]-4,6-dihydroxyphenyl}-N-[1-(3,3-dimethyl-1,5-dioxaspiro[5.5]undec-9-yl)piperidin-4-yl]isoxazole-3-carboxamide], in the data set “in vivo”, the clearance was 1340 mL/h/kg, the half-life was 6.71 h, the Vd was found to be 6000 mL/kg and the bioavailability worked out at 19%. In data set [1] (setting [6]), the IC50 stood at 0.035 µM. Further, the IC50 in data set [2] (setting [5]) amounted to 0.037 µM. Moreover, the affinity at His-HSP90 N-term domain, expressed as Kd, was 0.08 nM.

Consider `O=C(NC1CCN(C2CCC(F)(F)CC2)CC1)c1cc(-c2c(O)cc(O)cc2Oc2ccc([N+](=O)[O-])cc2)on1` [N-[1-(4,4-Difluorocyclohexyl)piperidin-4-yl]-5-[2,4-dihydroxy-6-(4-nitrophenoxy)phenyl]isoxazole-3-carboxamide], for which the IC50 worked out at 0.05 µM in data set [1] (setting [3]) and 0.027 µM in data set [2] (setting [4]). On His-HSP90 N-term domain, the Kd (usually the free concentration of one partner at which half of the binding sites on the other are occupied at equilibrium, for simple one-to-one binding) was found to be 0.8 nM.

`CC(C)N1CCC(NC(=O)c2cc(-c3c(O)cc(O)cc3Oc3ccc([N+](=O)[O-])cc3)on2)CC1` [5-[2,4-Dihydroxy-6-(4-nitrophenoxy)phenyl]-N-[1-(propan-2-yl)piperidin-4-yl]isoxazole-3-carboxamide]: the IC50 in data set [2] (setting [4]) turned out to be 0.058 µM.

Consider `CN(C)c1ccc(Oc2cc(O)cc(O)c2-c2cc(C(=O)NC3CCN(C4CCC5(CC4)OCCO5)CC3)on2)cc1` [3-{2-[4-(Dimethylamino)phenoxy]-4,6-dihydroxyphenyl}-N-[1-(1,4-dioxaspiro[4.5]dec-8-yl)piperidin-4-yl]isoxazole-5-carboxamide], for which, in the data set “in vivo”, the clearance is 1910 mL/h/kg, the half-life is 7.23 h, the Vd was 9120 mL/kg and the bioavailability turned out to be 23%. In data set [1] (setting [6]), the IC50 is 0.02 µM. Moreover, the IC50 in data set [2] (setting [5]) was determined as 0.003 µM. In addition, the affinity on His-HSP90 N-term domain, expressed as Kd, was 0.043 nM.

For the compound `CN1CCC(NC(=O)c2cc(-c3c(O)cc(O)cc3Oc3ccc([N+](=O)[O-])cc3)no2)CC1` [3-[2,4-Dihydroxy-6-(4-nitrophenoxy)phenyl]-N-(1-methylpiperidin-4-yl)isoxazole-5-carboxamide], in the data set “in vivo”, the clearance was 3420 mL/h/kg, the half-life is 1.52 h, the Vd came out at 4470 mL/kg and the bioavailability was determined as 7%. In data set [1] (setting [3]), the IC50 is 0.02 µM. Besides, the IC50 in data set [2] (setting [4]) was found to be 0.022 µM. The compound also came in with a Kd on His-HSP90 N-term domain of 0.24 nM.

Take `CN(C)c1ccc(Oc2cc(O)cc(O)c2-c2cc(C(=O)NC3CCN(C4CCC5(CC4)OCCCCO5)CC3)no2)cc1` [5-{2-[4-(Dimethylamino)phenoxy]-4,6-dihydroxyphenyl}-N-[1-(7,12-dioxaspiro[5.6]dodec-3-yl)piperidin-4-yl]isoxazole-3-carboxamide]: in the data set “in vivo”, the clearance is 1310 mL/h/kg, the half-life was 6.87 h, the Vd was determined as 5980 mL/kg and the bioavailability turned out to be 14%. In data set [1] (setting [6]), the IC50 was 0.023 µM. Moreover, the IC50 in data set [2] (setting [5]) was determined as 0.045 µM. Also, the Kd at His-HSP90 N-term domain came out at 0.423 nM.

For `CCNC(=O)c1cc(-c2c(O)cc(O)cc2Oc2ccc(Cl)cc2)on1` [5-[2-(4-chlorophenoxy)-4,6-dihydroxyphenyl]-N-ethylisoxazole-3-carboxamide], in data set [2] (setting [4]), the IC50 came out at 0.059 µM.

As for `CN(C)c1ccc(Oc2cc(O)cc(O)c2-c2cc(C(=O)NC3CCN(CC4CCCCC4)CC3)no2)cc1` [N-[1-(Cyclohexylmethyl)piperidin-4-yl]-5-{2-[4-(dimethylamino)phenoxy]-4,6-dihydroxyphenyl}isoxazole-3-carboxamide], the IC50 in data set [1] (setting [3]) worked out at 0.01 µM; in data set [2] (setting [4]), 0.02 µM. In addition, the Kd at His-HSP90 N-term domain stood at 0.188 nM.

As to `CN(C)c1ccc(Oc2cc(O)cc(O)c2-c2cc(C(=O)NC3CCN(C4CCC(F)(F)CC4)CC3)no2)cc1` [N-[1-(4,4-Difluorocyclohexyl)piperidin-4-yl]-5-{2-[4-(dimethylamino)phenoxy]-4,6-dihydroxyphenyl}isoxazole-3-carboxamide], the IC50 in data set [1] (setting [3]) stood at 0.02 µM; in data set [2] (setting [4]) it was 0.002 µM. The Kd at His-HSP90 N-term domain was 0.057 nM.
